From paper PMC11210812, “Assessment of polymeric mucin–drug interactions” (PLOS ONE, 2024)

Tests used:
Experiment in all cases: mucin fluorescence quenching, Lineweaver-Burk fit
Format in all cases: binding
MUC5B = molecular target: T1, MUC5B (Homo sapiens, UniProt Q9HC84); settings: for Kd (μM) / MUC5B: PBS pH 7.4, 37 °C, unreliable (Kd above highest concentration tested)
T1 construct: native secreted polymeric gel-forming mucin, O-glycosylated, disulfide-linked; purified from human cell culture by two-step CsCl density gradient
Text: mucin fluorescence quenching, Lineweaver-Burk fit on MUC5B

MUC5AC = molecular target: T2, MUC5AC (Homo sapiens, UniProt P98088); settings: for Kd (μM) / MUC5AC: PBS pH 7.4, 37 °C, unreliable (Kd above highest concentration tested)
T2 construct: native secreted polymeric gel-forming mucin, O-glycosylated, disulfide-linked; purified from human cell culture by two-step CsCl density gradient
Text: mucin fluorescence quenching, Lineweaver-Burk fit on MUC5AC

MUC2 = molecular target: T3, MUC2 (Homo sapiens, UniProt Q02817); settings: for Kd (μM) / MUC2: PBS pH 7.4, 37 °C, unreliable (Kd above highest concentration tested)
T3 construct: native secreted polymeric gel-forming mucin, O-glycosylated, disulfide-linked; purified from human cell culture by two-step CsCl density gradient
Text: mucin fluorescence quenching, Lineweaver-Burk fit on MUC2

Kd (MUC5AC) [µM] | Kd (MUC2) [µM] | Structure (SMILES) | Kd (MUC5B) [µM] | Kd (μM) / MUC2 (MUC2; drug 0-200 μM) [µM] | Kd (μM) / MUC5B (MUC5B; drug 0-200 μM) [µM] | further results
124 ± 1.5 | 136 ± 12.1 | O=c1[nH]cc(F)c(=O)[nH]1 [5-Fluorouracil] | 143 ± 17 |  |  | 
87.6 ± 7 | 163 ± 39.1 | CC(=O)O[C@H]1C(=O)[C@@]2(C)[C@H]([C@H](OC(=O)c3ccccc3)[C@]3(O)C[C@H](OC(=O)[C@H](O)[C@@H](NC(=O)c4ccccc4)c4ccccc4)C(C)=C1C3(C)C)[C@]1(OC(C)=O)CO[C@@H]1C[C@@H]2O [Paclitaxel] |  |  | 288.0 ± 24.9 | 
 |  | Cc1cc(=O)n(-c2ccccc2)n1C [Antipyrine] |  | 393.1 ± 26.2 | 386.0 ± 49.3 | Kd (μM) / MUC5AC (MUC5AC; drug 0-200 μM): 302.0 ± 6.7 µM
 |  | COC1=CC(=O)C[C@@H](C)[C@]12Oc1c(Cl)c(OC)cc(OC)c1C2=O [Griseofulvin] |  |  |  | Kd (μM) / MUC5B (MUC5B; drug 0-20 μM): 29.9 ± 5.0 µM; Kd (μM) / MUC5AC (MUC5AC; drug 0-20 μM): 25.4 ± 1.6 µM; Kd (μM) / MUC2 (MUC2; drug 0-20 μM): 45.3 ± 9.6 µM
 |  | CO[C@H]1/C=C/O[C@@]2(C)Oc3c(C)c(O)c4c(O)c(c(/C=N/N5CCN(C)CC5)c(O)c4c3C2=O)NC(=O)/C(C)=C\C=C\[C@H](C)[C@H](O)[C@@H](C)[C@@H](O)[C@@H](C)[C@H](OC(C)=O)[C@@H]1C [Rifampicin] |  |  |  | Kd (μM) / MUC5B (MUC5B; drug 0-10 μM): 44.5 ± 7.1 µM; Kd (μM) / MUC5AC (MUC5AC; drug 0-10 μM): 15.0 ± 1.5 µM; Kd (μM) / MUC2 (MUC2; drug 0-10 μM): 49.7 ± 6.2 µM

Structure (SMILES) | Kd (MUC5AC) [µM] | Kd (MUC2) [µM] | Kd (MUC5B) [µM] | Kd (μM) / MUC2 (MUC2; drug 0-200 μM) [µM] | Kd (μM) / MUC5B (MUC5B; drug 0-200 μM) [µM] | further results
Cn1c(=O)c2[nH]cnc2n(C)c1=O [Theophylline] | 185 ± 5.6 |  | 189 ± 7.2 | 390.2 ± 46.5 |  | 
